Data: patent US20190365741A1, “COMBINATIONS OF THE CDK4/6 INHIBITOR LEE011 AND THE MEK1/2 INHIBITOR TRAMETINIB, OPTIONALLY FURTHER COMPRISING THE PI3K INHIBITOR BYL719 TO TREAT CANCER” (Novartis AG, priority 2015, published 2019)
Entries after “also recorded” stand apart in the source; their conditions may differ.

Experiments:
Type in all cases: cell-based
[1] = test system: 15 colorectal cancer cell lines; test: Cell proliferation, summary over the cell line panel; conditions: single agent, across the cell lines in which growth was inhibited
Method: (§1) The compounds were dissolved in 100% DMSO (Sigma, Catalog number D2650) at concentrations of 20 mM and stored at −20° C. until use.
(§2) Colorectal cancer cell lines used for this study were obtained, cultured and processed from commercial vendors ATCC, CellBank Australia, DMSZ, ECACC, and HSRRB (Table 1). All cell line media were supplemented with 10% FBS (HyClone, Catalog number SH30071.03).
(§3) The debris counts were subtracted from raw nuclei counts.
The compound's effect on cell proliferation was calculated from the cell counts of the treatments relative to the cell counts of the negative control (DMSO), in FIG. 1 and FIG. 3 denoted as ‘Normalized cell count’ (=‘xnorm’) on the y-axis. […] The model input were inhibition values per drug dose: […]
(§4) (Boston Bioproducts, Catalog number BM-220).

GP2d = test: Cell proliferation (cell count by microscopy), single agents and combinations; conditions: 72 h, concentration giving 50% of cell counts relative to DMSO
Method: as §1, §2
(§5) Cell lines were cultured in 37° C. and 5% CO2 incubator and expanded in T-75 flasks. In all cases cells were thawed from frozen stocks, expanded through≥1 passage using 1:3 dilutions, counted and assessed for viability using a ViCell counter (Beckman-Coulter) prior to plating. […] All cell lines were determined to be free of mycoplasma contamination as determined by a PCR detection methodology performed at Idexx Radil (Columbia, Mo., USA) and correctly identified by detection of a panel of SNPs.
as §3
(§6) The compound's effect on cell proliferation was calculated from the cell counts of the treatments relative to the cell counts of the negative control (DMSO), in FIG. 1 and FIG. 3 denoted as ‘Normalized cell count’ (=‘xnorm’) on the y-axis. […] The model input were inhibition values per drug dose:
(§7) I=1−xnorm • I: inhibition • xnorm: normalized cell count (median of three replicates)
(§8) To favor combination effects at high inhibition the residuals were weighted with the observed inhibition at the same dose point. The overall combination score C of a drug combination is the sum of the weighted residuals over all concentrations:
(§9) C=ΣCone (Idata*(Idata−Imodel)) • Idata: measured inhibition Imodel: inhibition according to HSA null hypothesis
(§10) Robust combination z-scores (zC) were calculated as the ratio of the treatments' combination scores C and the median absolute deviation (mad) of non-interacting combinations:
(§11) zC=C/mad(Czero) • Czero: combination scores of non-interacting combinations zC is an indicator for the strength of the combination with:
(§12) In order to assess the effect of the triple combination all individual compounds, all three pair wise combinations, and the triple combination were tested in the same experiment.
as §4

LIM2551 = test: as above; conditions: LIM2551, 72 h, concentration giving 50% of cell counts relative to DMSO
Method: as §1, §2, §5, §3, §6, §7, §8, §9, §10, §11, §12, §4

LS-180 = test: as above; conditions: Homo sapiens, LS180; LS-180, 72 h, concentration giving 50% of cell counts relative to DMSO
Method: as §1, §2, §5, §3, §6, §7, §8, §9, §10, §11, §12, §4

OUMS-23 = test: as above; conditions: OUMS-23, 72 h, concentration giving 50% of cell counts relative to DMSO
Method: as §1, §2, §5, §3, §6, §7, §8, §9, §10, §11, §12, §4

LoVo = test: as above; conditions: Homo sapiens, 96 h, concentration giving 50% of cell counts relative to DMSO
Method: as §1, §2, §5, §3, §6, §7, §8, §9, §10, §11, §12, §4

LS411N = test: as above; conditions: Homo sapiens, LS-411N, 72 h, concentration giving 50% of cell counts relative to DMSO
Method: as §1, §2, §5, §3, §6, §7, §8, §9, §10, §11, §12, §4

DLD-1 = test: as above; conditions: Homo sapiens; DLD-1, 72 h, concentration giving 50% of cell counts relative to DMSO
Method: as §1, §2, §5, §3, §6, §7, §8, §9, §10, §11, §12, §4

SW480 = test: as above; conditions: Homo sapiens; SW480, 72 h, concentration giving 50% of cell counts relative to DMSO
Method: as §1, §2, §5, §3, §6, §7, §8, §9, §10, §11, §12, §4

HCT-116 = test: as above; conditions: Homo sapiens; HCT-116, 72 h, concentration giving 50% of cell counts relative to DMSO
Method: as §1, §2, §5, §3, §6, §7, §8, §9, §10, §11, §12, §4

SW837 = test: as above; conditions: Homo sapiens; SW837, 72 h, concentration giving 50% of cell counts relative to DMSO
Method: as §1, §2, §5, §3, §6, §7, §8, §9, §10, §11, §12, §4

COLO-320 = test: as above; conditions: Homo sapiens; COLO-320, 72 h, concentration giving 50% of cell counts relative to DMSO
Method: as §1, §2, §5, §3, §6, §7, §8, §9, §10, §11, §12, §4

NCI-H508 = test: as above; conditions: Homo sapiens; NCI-H508, 72 h, concentration giving 50% of cell counts relative to DMSO
Method: as §1, §2, §5, §3, §6, §7, §8, §9, §10, §11, §12, §4

HT-29 = test: as above; conditions: Homo sapiens; HT-29, 72 h, concentration giving 50% of cell counts relative to DMSO
Method: as §1, §2, §5, §3, §6, §7, §8, §9, §10, §11, §12, §4

RKO = test: as above; conditions: Homo sapiens, 72 h, concentration giving 50% of cell counts relative to DMSO
Method: as §1, §2, §5, §3, §6, §7, §8, §9, §10, §11, §12, §4

COLO-205 = test: as above; conditions: Homo sapiens; COLO-205, 72 h, concentration giving 50% of cell counts relative to DMSO
Method: as §1, §2, §5, §3, §6, §7, §8, §9, §10, §11, §12, §4

## Cc1nc(NC(=O)N2CCC[C@H]2C(N)=O)sc1-c1ccnc(C(C)(C)C(F)(F)F)c1 [BYL719, (S)-Pyrrolidine-1,2-dicarboxylic acid 2-amide 1-({4-methyl-5-[2-(2,2,2-trifluoro-1,1-dimethyl-ethyl)-pyridin-4-yl]-thiazol-2-yl}-amide)]
[1]
  IC50 values, magnitude in words: mostly micromolar
GP2d
  IC50: 500 nM
LIM2551
  IC50: 2300 nM
LS-180
  IC50: > 10000 nM
OUMS-23
  IC50: > 10000 nM
LoVo
  IC50: > 10000 nM
LS411N
  IC50: > 10000 nM
DLD-1
  IC50: > 10000 nM
SW480
  IC50: > 10000 nM
HCT-116
  IC50: 9800 nM
SW837
  IC50: > 10000 nM
COLO-320
  IC50: 8300 nM
NCI-H508
  IC50: 500 nM
HT-29
  IC50: 2700 nM
RKO
  IC50: 3900 nM
COLO-205
  IC50: > 10000 nM

## CN(C)C(=O)c1cc2cnc(Nc3ccc(N4CCNCC4)cn3)nc2n1C1CCCC1 [LEE011, 7-Cyclopentyl-2-(5-piperazin-1-yl-pyridin-2-ylamino)-7H-pyrrolo[2,3-d]pyrimidine-6-carboxylic acid dimethylamide]
[1]
  IC50 values, magnitude in words: mostly micromolar; also recorded: sub-micromolar to micromolar
GP2d
  IC50: 4500 nM
LIM2551
  IC50: 1300 nM
LS-180
  IC50: 1800 nM
OUMS-23
  IC50: > 10000 nM
LoVo
  IC50: 800 nM
LS411N
  IC50: 2100 nM
DLD-1
  IC50: 4100 nM
SW480
  IC50: 1600 nM
HCT-116
  IC50: 4500 nM
SW837
  IC50: > 10000 nM
COLO-320
  IC50: 2800 nM
NCI-H508
  IC50: 700 nM
HT-29
  IC50: 800 nM
RKO
  IC50: 1500 nM
COLO-205
  IC50: 1100 nM

## CC(=O)Nc1cccc(-n2c(=O)n(C3CC3)c(=O)c3c(Nc4ccc(I)cc4F)n(C)c(=O)c(C)c32)c1 [Trametinib, N-{3-[3-cyclopropyl-5-(2-fluoro-4-iodo-phenylamino)6,8-dimethyl-2,4,7-trioxo-3,4,6,7-tetrahydro-2H-pyrido[4,3-d]pyrimidin-1-yl]phenyl}acetamide]
[1]
  IC50 values, magnitude in words: nanomolar to sub-micromolar
GP2d
  IC50: > 300 nM
LIM2551
  IC50: 5 nM
LS-180
  IC50: 18 nM
OUMS-23
  IC50: > 300 nM
LoVo
  IC50: 7 nM
LS411N
  IC50: 7 nM
DLD-1
  IC50: 153 nM
SW480
  IC50: 55 nM
HCT-116
  IC50: 38 nM
SW837
  IC50: 51 nM
COLO-320
  IC50: > 300 nM
NCI-H508
  IC50: 7 nM
HT-29
  IC50: 4 nM
RKO
  IC50: 21 nM
COLO-205
  IC50: 4 nM
